Laboratory results taken from patent publication US12702660B2, “Method for treating cancer with an oral dosage form of an estrogen receptor-alpha inhibitor” (Eisai R&D Management Co., Ltd., priority 2019, dated 2026).

What was measured:
Format in all cases: in vivo, human
[1] = tested on: ER target gene expression; experiment: Pharmacodynamics: ER target gene expression; settings: patients, 100 to 450 mg/day
Protocol: (§1) Methods were used to analyze whether H3B-6545 inactivates both wild-type and mutant ERα by targeting cysteine 530 and enforcing a unique antagonist conformation. Methods: Women with locally advanced or metastatic HR+BC are treated (tx) with H3B-6545 drug product administered once daily orally by capsule over a 28 day cycle after progression on at least one hormonal therapy and at least one additional therapy/regimen. Dose escalation uses a 3+3 design with the option to backfill previously cleared doses and allows for intrapatient dose escalation. This example explored the safety, pharmacokinetics and pharmacodynamics of H3B-6545 in women with HR+BC to identify a recommended subsequent dose for testing.

[2] = Safety: treatment-related adverse events and dose-limiting toxicities, phase 1 dose escalation
Text: (§2) Example 3 reports Clinical and Genomics Analysis of a single trial. The Study Population in Example 3 was as follows: • Women ≥18 years old with locally advanced or metastatic ER+HER2−BC. • Progression on at least one hormonal therapy and at least one additional therapy/regimen; no maximum number of prior lines of therapy. • ECOG performance status of 0 or 1. • Adequate bone marrow and organ function. • Excluded if had bone-only disease or inflammatory BC.
as §1
• H3B-6545 administered once daily orally over a 28 day cycle. • Dose escalation using a standard 3+3 study design using dose cohorts of 100, 200, 300, 450, and 600 mg QD. • Patients allowed to backfill previously cleared doses. • Intra-patient dose escalation allowed after completion of Cycle 3. […]

[3] = Plasma PK of H3B-6545 capsules in fasted patients, phase 1 dose escalation; settings: 100 to 450 mg; as of 10 Dec. 2018
[4] = tested on: locally advanced or metastatic ER+HER2−BC; experiment: Tumor response and progression-free survival, phase 1 dose escalation
Text: as §2, §1
• H3B-6545 administered once daily orally over a 28 day cycle. • Dose escalation using a standard 3+3 study design using dose cohorts of 100, 200, 300, 450, and 600 mg QD. • Patients allowed to backfill previously cleared doses. • Intra-patient dose escalation allowed after completion of Cycle 3. Results (as of Apr. 20, 2019) Patient Population: • 46 patients were treated with H3B-6545 at doses of 100 to 600 mg QD. • 42 (91.3%) patients received a prior CDK4/6 inhibitor and 32 (69.6%) prior fulvestrant. • 30 (65.2%) patients received ≥3 prior anti-cancer therapy lines in the advanced/metastatic setting.

[5] = tested on: locally advanced or metastatic ER+HER2−BC; experiment: as above; settings: as of 10 Dec. 2018; 32 patients, 100 to 450 mg/day
[6] = 100 mg QD (N = 6), as of Apr. 20, 2019
[7] = 200 mg QD (N = 12), as of Apr. 20, 2019
[8] = 300 mg QD (N = 11), as of Apr. 20, 2019
[9] = 450 mg QD (N = 10), as of Apr. 20, 2019
[10] = 600 mg QD (N = 7), as of Apr. 20, 2019
[11] = Total (N = 46), 100 to 600 mg QD, as of Apr. 20, 2019
[12] = as of 10 Dec. 2018, 32 patients, 100 to 450 mg/day
[13] = as of Apr. 20, 2019, 100 to 600 mg QD
[14] = Total (N = 46), 100 to 600 mg QD
[15] = as of Apr. 20, 2019, 46 patients, 100 to 600 mg QD

SMILES: CN(C)C(=O)/C=C/CNCCOc1ccc(/C(=C(/CC(F)(F)F)c2ccccc2)c2ccc3[nH]nc(F)c3c2)cn1 [H3B-6545, (E)-N,N-dimethyl-4-[2-[5-[(Z)-4,4,4-trifluoro-1-(3-fluoro-1H-indazol-5-yl)-2-phenylbut-1-enyl]pyridin-2-yl]oxyethylamino]but-2-enamide]
- ER target gene expression [1]: inhibited ER target gene expression
- Subjects with any TRAE [2, 6]: 4
- TRAE Anaemia, subjects [2, 6]: 0
- TRAE Aspartate aminotransferase increased, subjects [2, 6]: 0
- TRAE Diarrhoea, subjects [2, 6]: 1
- TRAE Fatigue, subjects [2, 6]: 1
- TRAE Nausea, subjects [2, 6]: 1
- TRAE Sinus bradycardia, subjects [2, 6]: 0
- Subjects with any TRAE [2, 7]: 6
- TRAE Anaemia, subjects [2, 7]: 1
- TRAE Aspartate aminotransferase increased, subjects [2, 7]: 1
- TRAE Diarrhoea, subjects [2, 7]: 1
- TRAE Fatigue, subjects [2, 7]: 2
- TRAE Nausea, subjects [2, 7]: 0
- TRAE Sinus bradycardia, subjects [2, 7]: 2
- Subjects with any TRAE [2, 8]: 9
- TRAE Anaemia, subjects [2, 8]: 2
- TRAE Aspartate aminotransferase increased, subjects [2, 8]: 1
- TRAE Diarrhoea, subjects [2, 8]: 2
- TRAE Fatigue, subjects [2, 8]: 3
- TRAE Nausea, subjects [2, 8]: 3
- TRAE Sinus bradycardia, subjects [2, 8]: 7
- Subjects with any TRAE [2, 9]: 9
- TRAE Anaemia, subjects [2, 9]: 3
- TRAE Aspartate aminotransferase increased, subjects [2, 9]: 1
- TRAE Diarrhoea, subjects [2, 9]: 3
- TRAE Fatigue, subjects [2, 9]: 1
- TRAE Nausea, subjects [2, 9]: 4
- TRAE Sinus bradycardia, subjects [2, 9]: 3
- Subjects with any TRAE [2, 10]: 5
- TRAE Anaemia, subjects [2, 10]: 1
- TRAE Aspartate aminotransferase increased, subjects [2, 10]: 2
- TRAE Diarrhoea, subjects [2, 10]: 0
- TRAE Fatigue, subjects [2, 10]: 1
- TRAE Nausea, subjects [2, 10]: 1
- TRAE Sinus bradycardia, subjects [2, 10]: 0
- dose-limiting toxicity (DLT)s, number ([2]; 600 mg QD cohort, Grade 3 fatigue and Grade 3 rash morbilliform, as of Apr. 20, 2019): Two
- sinus bradycardia, dose or concentration dependence ([2]; 46 patients, 100 to 600 mg QD): does not appear to be dose- or concentration-dependent
- TRAEs ≥Grade 4 ([2]; 46 patients, 100 to 600 mg QD, as of Apr. 20, 2019): no TRAEs ≥Grade 4
- Grade 3 TRAEs, number ([2]; 46 patients, 100 to 600 mg QD, two at 450 mg, four at 600 mg, as of Apr. 20, 2019): Six
- Subjects with any TRAE [2, 11]: 33
- TRAE Anaemia, subjects [2, 11]: 7
- TRAE Aspartate aminotransferase increased, subjects [2, 11]: 5
- TRAE Diarrhoea, subjects [2, 11]: 7
- TRAE Fatigue, subjects [2, 11]: 8
- TRAE Nausea, subjects [2, 11]: 9
- TRAE Sinus bradycardia, subjects [2, 11]: 12
- dose-limiting toxicities [2, 12]: No dose-limiting toxicities
- Grade 3 treatment related adverse events (TRAE), number ([2]; as of 10 Dec. 2018, 32 patients, 100 to 450 mg/day, lymphocyte count decrease): one
- tolerability ([2]; as of 10 Dec. 2018, H3B-6545 drug product): well-tolerated up to the 450 mg dose level
- grade of TRAEs [2, 13]: Most TRAEs were grade 1 or 2 and manageable
- tolerated dose [2, 13]: tolerated up to and including 450 mg QD
- plasma concentration versus dose [3]: increased with dose
- Best Overall Response: Complete Response (CR) ([4]; 100 mg QD (N = 6)): 0 (0.0) n (%)
- Best Overall Response: Not Evaluable (NE) ([4]; 100 mg QD (N = 6)): 0 (0.0) n (%)
- Best Overall Response: Partial Response (PR) ([4]; 100 mg QD (N = 6)): 1 (16.7) n (%)
- Best Overall Response: Progressive Disease (PD) ([4]; 100 mg QD (N = 6)): 0 (0.0) n (%)
- Best Overall Response: Unknown (UNK) ([4]; 100 mg QD (N = 6)): 0 (0.0) n (%)
- Objective Responses (CR + PR) ([4]; 100 mg QD (N = 6)): 1 (16.7) n(%)
- Progressive-Free Survival, Median (95% CI) ([4]; 100 mg QD (N = 6)): 9.3 (7.4, NE) months
- Progressive-Free Survival, Q1 (95% CI) ([4]; 100 mg QD (N = 6)): 7.5 (7.4, 11.0) months
- Best Overall Response: Complete Response (CR) ([4]; 200 mg QD (N = 12)): 0 (0.0) n (%)
- Best Overall Response: Not Evaluable (NE) ([4]; 200 mg QD (N = 12)): 4 (33.3) n (%)
- Best Overall Response: Partial Response (PR) ([4]; 200 mg QD (N = 12)): 1 (8.3) n (%)
- Best Overall Response: Progressive Disease (PD) ([4]; 200 mg QD (N = 12)): 2 (16.7) n (%)
- Best Overall Response: Unknown (UNK) ([4]; 200 mg QD (N = 12)): 1 (8.3) n (%)
- Objective Responses (CR + PR) ([4]; 200 mg QD (N = 12)): 1 (8.3) n(%)
- Progressive-Free Survival, Median (95% CI) ([4]; 200 mg QD (N = 12)): 5.5 (0.9, NE) months
- Progressive-Free Survival, Q1 (95% CI) ([4]; 200 mg QD (N = 12)): 1.5 (0.9, 5.5) months
- Best Overall Response: Complete Response (CR) ([4]; 300 mg QD (N = 11)): 0 (0.0) n (%)
- Best Overall Response: Not Evaluable (NE) ([4]; 300 mg QD (N = 11)): 3 (27.3) n (%)
- Best Overall Response: Partial Response (PR) ([4]; 300 mg QD (N = 11)): 0 (0.0) n (%)
- Best Overall Response: Progressive Disease (PD) ([4]; 300 mg QD (N = 11)): 5 (45.5) n (%)
- Best Overall Response: Unknown (UNK) ([4]; 300 mg QD (N = 11)): 0 (0.0) n (%)
- Objective Responses (CR + PR) ([4]; 300 mg QD (N = 11)): 0 (0.0) n(%)
- Progressive-Free Survival, Median (95% CI) ([4]; 300 mg QD (N = 11)): 1.8 (1.6, 5.4) months
- Progressive-Free Survival, Q1 (95% CI) ([4]; 300 mg QD (N = 11)): 1.8 (1.6, 1.8) months
- Progressive-Free Survival, Q3 (95% CI) ([4]; 300 mg QD (N = 11)): 5.4 (1.8, NE) months
- Best Overall Response: Complete Response (CR) ([4]; 450 mg QD (N = 10)): 0 (0.0) n (%)
- Best Overall Response: Not Evaluable (NE) ([4]; 450 mg QD (N = 10)): 3 (30.0) n (%)
- Best Overall Response: Partial Response (PR) ([4]; 450 mg QD (N = 10)): 1 (10.0) n (%)
- Best Overall Response: Progressive Disease (PD) ([4]; 450 mg QD (N = 10)): 3 (30.0) n (%)
- Best Overall Response: Unknown (UNK) ([4]; 450 mg QD (N = 10)): 0 (0.0) n (%)
- Objective Responses (CR + PR) ([4]; 450 mg QD (N = 10)): 1 (10.0) n(%)
- Progressive-Free Survival, Median (95% CI) ([4]; 450 mg QD (N = 10)): 7.2 (1.8, 7.3) months
- Progressive-Free Survival, Q1 (95% CI) ([4]; 450 mg QD (N = 10)): 1.9 (1.8, 7.2) months
- Progressive-Free Survival, Q3 (95% CI) ([4]; 450 mg QD (N = 10)): 7.3 (2.1, 7.5) months
- Best Overall Response: Complete Response (CR) ([4]; 600 mg QD (N = 7)): 0 (0.0) n (%)
- Best Overall Response: Not Evaluable (NE) ([4]; 600 mg QD (N = 7)): 4 (57.1) n (%)
- Best Overall Response: Partial Response (PR) ([4]; 600 mg QD (N = 7)): 0 (0.0) n (%)
- Best Overall Response: Progressive Disease (PD) ([4]; 600 mg QD (N = 7)): 1 (14.3) n (%)
- Best Overall Response: Unknown (UNK) ([4]; 600 mg QD (N = 7)): 0 (0.0) n (%)
- Objective Responses (CR + PR) ([4]; 600 mg QD (N = 7)): 0 (0.0) n(%)
- Best Overall Response: Complete Response (CR) [4, 14]: 0 (0.0) n (%)
- Best Overall Response: Not Evaluable (NE) [4, 14]: 14 (30.4) n (%)
- Best Overall Response: Partial Response (PR) [4, 14]: 3 (6.5) n (%)
- Best Overall Response: Progressive Disease (PD) [4, 14]: 11 (23.9) n (%)
- Best Overall Response: Unknown (UNK) [4, 14]: 1 (2.2) n (%)
- Objective Responses (CR + PR) [4, 14]: 3 (6.5) n(%)
- Progressive-Free Survival, Median (95% CI) [4, 14]: 7.2 (1.9, 7.4) months
- Progressive-Free Survival, Q1 (95% CI) [4, 14]: 1.8 (1.6, 2.1) months
- Progressive-Free Survival, Q3 (95% CI) [4, 14]: 7.5 (7.3, NE) months
- Stable disease, patients [4, 12]: 15 patients
- At least 6 months of therapy completed, % of patients [4, 15]: 30.4%
- At least 6 months of therapy completed, patients [4, 15]: 14 patients
- Confirmed partial response, % of patients [4, 15]: 6.5%
- Confirmed partial response, patients [4, 15]: 3 patients
- Stable disease, % of patients [4, 15]: 37.0%
- Stable disease, patients [4, 15]: 17 patients
- mPFS ([4]; heavily pre-treated, post CDK4/6i setting, 46 patients): 7.2 months
- response of case study patient ([4]; patient case study, 450 mg QD, after 4 cycles): partial response
- decrease in the sum of the diameters of all target lesions ([4]; patient case study, 450 mg QD, baseline to C3D1): −27.8%
- decrease in the sum of the diameters of all target lesions ([4]; patient case study, 450 mg QD, baseline to C7D1): −35.6%
- Partial responses (PRs), patients [5]: 3 patients
- Stable disease, % of patients [5]: 47%
- patients who completed at least 6 months of treatment [5]: 34%
